Measured values as given in patent US20150344535A1, “NEUROTROPHIN-TYROSINE KINASE RECEPTOR SIGNALING” (THE UNIVERSITY OF QUEENSLAND, priority 2012, published 2015).

Experiments:
PC12 cells [1] = assay: PC12 cell neurite outgrowth in response to NGF; format: cell-based
Method: To assess the effect of p75^NTR constructs (FIG. 2) or c29 peptide on TrkA-mediated neuritogenesis, transfected PC12 cells were grown in the presence of 100 ng/ml NGF for 3 days, with fresh medium and NGF treatments added on day 2. Cells were then imaged live on an Olympus (IX81) microscope fitted with a CO2 atmospheric chamber, using analySIS software. Four random images of 80-100 cells were taken for each treatment condition and images were determined by measuring polygon neurite length of all cells in each image. Data analysis was performed using Graphpad PRISM.
Once PC12 cells are fully differentiated, they become dependent on NGF for survival (Greene, 1978), but can survive if grown in the presence of lower concentrations of NGF (Greene and Tischler, 1976). To determine if c29 could potentiate TrkA-mediated signals, PC12 cells were cultured in the presence of NGF concentrations ranging from 1-100 ng/ml for 5 days, following serum starvation and pre-incubation with c29, scrambled control peptide or no peptide (FIG. 5A). […] Peptides (1 μM) were added to the cultures every 48 hours at the time of NGF addition and medium exchange.

PC12 cells [2] = assay: PC12 cell viability / NGF withdrawal (acid phosphatase assay); format: cell-based
Method: To investigate the role of c29 peptide in NGF-withdrawal assays, NGF-containing medium in PC12 cultures was exchanged for NGF-free medium on day 3, and cells were treated with c29 or scrambled peptide and reduced NGF concentrations (1 ng or 10 ng/ml). Treated cells were cultured for 2 days and cell viability was determined via quantification of cytosolic acid phosphatase enzyme activity as described in (Yang et al., 1996).
Briefly, cells were grown in 96-well plates at densities of 5000 cells per well. The culture medium in treated cell assays was removed from and each well was washed once with 200 μl phosphate buffered saline (PBS, pH 7.2). To each well, 100 μl of sodium acetate and p-nitrophenyl phosphate buffer containing 0.1 M sodium acetate (pH 5.0), 0.1% Triton X-100, and 5 mM p-nitrophenyl phosphate was added. The plates were placed in a 37° C. incubator for 30 minutes. The reaction was stopped with the addition of […] of 1 N NaOH, and colour development absorbance was assayed at 405 nm using a microplate reader (POLARstar OPTIMA, USA). […] This background value was typically 0.03-0.1 absorbance units.

[3] = system: C7-8 spinal cord motor neurons; assay: Motor neuron axotomy (median and ulnar nerve) in neonatal rat; format: in vivo; details: P4 rat pups, peptide in gel foam at axonal stump, 5-day recovery, relative to contralateral side
Method: Median and ulnar nerve axotomy was performed on 4 day-old Wistar rat pups as previously described (Cheema et al., 1996). Peptides (c29 and vehicle only; 100 nM) were applied via a 1 mm^3 cube of pluronic gel foam that was sutured to the proximal axonal stump (Cheema et al., 1996). After 5 days the animals were perfused with a 4% solution of paraformaldehyde in phosphate buffer. Cervical spinal cords were removed, after which serial sections were cut at 40 μm, mounted onto gelatin-coated slides and stained in 0.1% cresyl violet. Details of the counting procedure have been described previously (Cheema et al., 1994).
We next investigated whether c29 could prevent motor neuron death following growth factor withdrawal in vivo using a neonatal rat axotomy model. Following unilateral median and ulnar nerve transections of postnatal day 4 (P4) rat pups, c29 or the vehicle protein transduction domain (PTD4) was applied to the proximal site of transaction in a small cube of gel foam. After a 5-day recovery, the number of surviving C7-8 spinal cord motor neurons relative to the contralateral side was determined by histological counts. Such an axotomy causes 50% of the ipsilateral motor neurons to die (Cheema et al., 1996), with control peptide treatment having no effect on this degree of cell death (FIG. 7E, F). […]

HEK293 cells = assay: NGF-FITC binding by flow cytometry, non-transfected HEK293 cells
Method: Background fluorescence of HEK293 cells was non-transfected cells (±c29 or scrambled peptide treatment) treated with 26 nM NGF-FITC. For PC12 cells, the control population was cells that had not been treated with NGF-FITC. Analysis of real-time NGF-FITC receptor binding experiments was performed on 550,000-600,000 cells at 4° C. in serum free NB medium and binding kinetics were calculated from raw data files compressed to 50,000 binding events using FlowJo and MatLab Software. Data was plotted with the use of GraphPad Prism.
Only NGF-FITC preparations that promoted equivalent neurite outgrowth of PC12 cells to that of unlabelled NGF were used in binding experiments. To investigate NGF binding, PC12 or transfected HEK293 cells were serum starved for 4 hours, harvested, washed with Dulbecco's Modified Eagle Medium (DMEM), and counted. When used, c29 or scrambled peptide were added to cultures for the third hour of the serum starvation procedure. […] For binding competition assays, following 1 hour in NGF-FITC, cells were washed with ice-cold PBS containing 0.1% normal bovine serum and incubated on ice with unlabeled NGF at concentrations ranging from 100 pM to 10 μM for 30 minutes, then washed twice in PBS before being analysed on a BD Flow Cytometer FACS Scan (Becton-Dickinson).

For “KRWNSCKQNKQGANSRPVNQTPPPEGEKL (c29- Fragment of p75ICD) [29 amino acid peptide of the p75NTR juxtamembrane Chopper domain; delivered to cells linked to PTD4 or disulfide-linked carrier]”, the “neurite outgrowth (length)” value (PC12 cells [1]; 1 ng/ml NGF, day 5, peptide 1 μM) was 20 μm, the “neurite length vs scrambled peptide or NGF alone” value (PC12 cells [1]; 1 ng/ml and 10 ng/ml NGF, day 5, peptide 1 μM) was “significantly longer neurites” and the median neurite length (PC12 cells [1]; 10 ng/ml NGF, day 5, peptide 1 μM) was 60 μm. For the same sequence, the median neurite outgrowth (PC12 cells [1]; 100 ng/ml NGF, day 5, peptide 1 μM, vs untreated cultures) was “no difference”, the neurite growth (PC12 cells [1]; fragments incubated with PC12 cells and NGF, FIG. 16) was “stimulated neurite growth” and the “survival rate of cells” value (PC12 cells [2]; 1 ng/ml NGF after differentiation in 100 ng/ml NGF) was “significantly increased the survival rate”. For the same sequence, the cell survival (PC12 cells [2]; absence of NGF) was “did not affect on cell survival”, the “basal PC12 cell growth and proliferation” value (PC12 cells [2]; medium lacking NGF) was “no effect on basal PC12 cell growth and proliferation” and the “axotomised neurons that died” value [3] was 12%. The “fluorescence of nontransfected cells incubated with peptide and NGF-FITC” value (HEK293 cells) was “only background levels of fluorescence”.
